From patent publication US9682995B2, “Amino-substituted isothiazoles” (BAYER PHARMA AKTIENGESELLSCHAFT, priority 2013, dated 2017)

How the values were obtained:
human Bub1 = human Bub1 (Homo sapiens (Human), UniProt O43683); assay: Bub1 kinase assay (TR-FRET); assay type: biochemical; settings: 10 μM ATP; read-out: Bub1 avg (IC50 [mol/l])
Description: Bub1-inhibitory activity of compounds of the present invention was quantified employing the Bub1 TR-FRET assay as described in the following paragraphs.
N-terminally His6-tagged recombinant catalytic domain of human Bub1 (amino acids 704-1085), expressed in insect cells (Hi5) and purified by Ni-NTA affinity chromatography and subsequent size exclusion chromatography, was used as enzyme. As substrate for the kinase reaction the biotinylated peptide biotin-Ahx-VLLPKKSFAEPG (C-terminus in amid form) was used which can be purchased e.g. form the company Biosyntan (Berlin, Germany).
For the assay 50 nl of a 100 fold concentrated solution of the test compound in DMSO was pipetted into a black low volume 384 well microtiter plate (Greiner Bio-One, Frickenhausen, Germany), 2 μl of a solution of Bub1 in aqueous assay buffer [50 mM Tris/HCl pH 7.5, 10 mM magnesium chloride (MgCl2), 200 mM potassium chloride (KCl), 1.0 mM dithiothreitol (DTT), 0.1 mM sodium ortho-vanadate, 1% (v/v) glycerol, 0.01% (w/v) bovine serum albumine (BSA), 0.005% (v/v) Trition X-100 (Sigma), 1× Complete EDTA-free protease inhibitor mixture (Roche)] were added and the mixture was incubated for 15 min at 22° C. to allow pre-binding of the test compounds to the enzyme before the start of the kinase reaction. Then the kinase reaction was started by the addition of 3 μl of a solution of adenosine-tri-phosphate (ATP, 16.7 μM=>final conc. in the 5 μl assay volume is 10 μM) and substrate (1.67 μM=>final conc. in the 5 μl assay volume is 1 μM) in assay buffer and the resulting mixture was incubated for a reaction time of 60 min at 22° C. The concentration of Bub1 was adjusted depending of the activity of the enzyme lot and was chosen appropriate to have the assay in the linear range, typical concentrations were in the range of 200 ng/ml. The reaction was stopped by the addition of 5 μl of a solution of TR-FRET detection reagents (0.2 μM streptavidine-XL665 [Cisbio Bioassays, Codolet, France] and 1 nM anti-phosho-Serine antibody [Merck Millipore, cat. #35-001] and 0.4 nM LANCE EU-W1024 labeled anti-mouse IgG antibody [Perkin-Elmer, product no. AD0077, as an alternative a Terbium-cryptate-labeled anti-mouse IgG antibody from Cisbio Bioassays can be used]) in an aqueous EDTA-solution (50 mM EDTA, 0.2% (w/v) bovine serum albumin in 100 mM HEPES pH 7.5).
The resulting mixture was incubated 1 h at 22° C. to allow the formation of complex between the phosphorylated biotinylated peptide and the detection reagents. Subsequently the amount of phosphorylated substrate was evaluated by measurement of the resonance energy transfer from the Eu-chelate to the streptavidine-XL. Therefore, the fluorescence emissions at 620 nm and 665 nm after excitation at 350 nm was measured in a TR-FRET reader, e.g. a Rubystar or Pherastar (both from BMG Labtechnologies, Offenburg, Germany) or a Viewlux (Perkin-Elmer). The ratio of the emissions at 665 nm and at […] was taken as the measure for the amount of phosphorylated substrate. The data were normalised (enzyme reaction without inhibitor=0% inhibition, all other assay components but no enzyme=100% inhibition).

HeLa = assay: Proliferation assay (crystal violet), HeLa; assay type: cell-based; settings: Homo sapiens, 96 h, 4 days, read-out: Inhibition of proliferation IC50 HeLa
Method: Cultivated tumor cells (cells were ordered from ATCC, except HeLa-MaTu and HeLa-MaTu-ADR, which were ordered from EPO-GmbH, Berlin) were plated at a density of 1000 to 5000 cells/well, depending on the growth rate of the respective cell line, in a 96-well multititer plate in 200 μL of their respective growth medium supplemented 10% fetal calf serum. After 24 hours, the cells of one plate (zero-point plate) were stained with crystal violet (see below), while the medium of the other plates was replaced by fresh culture medium (200 μl), to which the test substances were added in various concentrations (0 μM, as well as in the range of 0.001-10 μM; the final concentration of the solvent dimethyl sulfoxide was 0.5%). The cells were incubated for 4 days in the presence of test substances. Cell proliferation was determined by staining the cells with crystal violet: the cells were fixed by adding 20 μl/measuring point of an 11% glutaric aldehyde solution for 15 minutes at room temperature. After three washing cycles of the fixed cells with water, the plates were dried at room temperature. The cells were stained by adding 100 μl/measuring point of a 0.1% crystal violet solution (pH 3.0). After three washing cycles of the stained cells with water, the plates were dried at room temperature. The dye was dissolved by adding 100 μl/measuring point of a 10% acetic acid solution. Absorption was determined by photometry at a wavelength of 595 nm. The change of cell number, in percent, was calculated by normalization of the measured values to the absorption values of the zero-point plate (=0%) and the absorption of the untreated (0 μm) cells (=100%). The IC50 values were determined by means of a 4 parameter fit.

human Bub1, sequence (O43683 704-1085): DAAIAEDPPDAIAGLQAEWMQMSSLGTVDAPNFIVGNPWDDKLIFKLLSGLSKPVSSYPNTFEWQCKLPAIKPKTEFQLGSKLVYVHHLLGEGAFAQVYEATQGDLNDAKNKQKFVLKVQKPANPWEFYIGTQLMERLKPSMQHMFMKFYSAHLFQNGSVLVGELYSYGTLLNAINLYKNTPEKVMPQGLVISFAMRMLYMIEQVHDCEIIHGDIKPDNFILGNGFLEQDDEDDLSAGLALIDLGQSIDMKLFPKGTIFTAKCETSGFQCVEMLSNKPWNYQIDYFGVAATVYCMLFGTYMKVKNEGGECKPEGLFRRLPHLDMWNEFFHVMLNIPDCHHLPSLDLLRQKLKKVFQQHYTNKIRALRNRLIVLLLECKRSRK

| IC50 (human Bub1) [µM] | IC50 (HeLa) [µM] | SMILES |
| --- | --- | --- |
| > 20 | > 10 | COC(=O)c1ccc(Nc2snc(C)c2C(=O)Nc2ccc(OC)nc2)nc1 [Example 31, Methyl 6-({4-[(6-methoxypyridin-3-yl)carbamoyl]-3-methyl-1,2-thiazol-5-yl}amino)-nicotinate] |
| > 20 | 1.3 | CCc1ccccc1NC(=O)c1c(C)nsc1Nc1cnc2ccc(Cl)cc2n1 [Example 41, 5-[(7-Chloroquinoxalin-2-yl)amino]-N-(2-ethylphenyl)-3-methyl-1,2-thiazole-4-carboxamide] |
| > 20 | 1.8 | Cc1nsc(Nc2cnc3ccccc3n2)c1C(=O)Nc1ccc(OC(C)C)nc1 [Example 122, N-(6-Isopropoxypyridin-3-yl)-3-methyl-5-(quinoxalin-2-ylamino)-1,2-thiazole-4-carboxamide] |
| > 20 | 1.6 | CCOC(=O)c1sc(Nc2snc(C)c2C(=O)Nc2ccc(OC)nc2)nc1C [Example 30, Ethyl 2-({4-[(6-methoxypyridin-3-yl)carbamoyl]-3-methyl-1,2-thiazol-5-yl}amino)-4-methyl-1,3-thiazole-5-carboxylate] |
| > 20 | > 10 | CCc1ccccc1NC(=O)c1c(C)nsc1Nc1cc(NC)ncn1 [Example 15, N-(2-Ethylphenyl)-3-methyl-5-{[6-(methylamino)pyrimidin-4-yl]amino}-1,2-thiazole-4-carboxamide] |
| > 20 | > 10 | CCc1ccccc1NC(=O)c1c(C)nsc1Nc1nccc(OC)n1 [Example 16, N-(2-Ethylphenyl)-5-[(4-methoxypyrimidin-2-yl)amino]-3-methyl-1,2-thiazole-4-carboxamide] |
| > 20 | 3.2 | CCc1ccccc1NC(=O)c1c(C)nsc1Nc1ccnc(C#N)n1 [Example 6, 5-[(2-Cyanopyrimidin-4-yl)amino]-N-(2-ethylphenyl)-3-methyl-1,2-thiazole-4-carboxamide] |
| > 20 | 0.92 | CCOC(=O)c1cnn2ccc(Nc3snc(C)c3C(=O)Nc3ccc(F)c(F)c3)nc12 [Example 55, Ethyl 5-({4-[(3,4-difluorophenyl)carbamoyl]-3-methyl-1,2-thiazol-5-yl}amino)-pyrazolo[1,5-a]pyrimidine-3-carboxylate] |
| > 20 | 10 | CNC(=O)c1ccnc(Nc2snc(C)c2C(=O)Nc2ccc(F)c(F)c2)c1 [Example 108, 2-({4-[(3,4-Difluorophenyl)-carbamoyl]-3-methyl-1,2-thiazol-5-yl}amino)-N-methyliso-nicotinamide] |
| > 20 | 1.6 | Cc1nsc(Nc2ccc(C#N)cn2)c1C(=O)Nc1ccc(F)c(F)c1 [Example 28, 5-[(5-Cyanopyridin-2-yl)amino]-N-(3,4-difluorophenyl)-3-methyl-1,2-thiazole-4-carboxamide] |
| > 20 | 7.5 | CCc1ccccc1NC(=O)c1c(C)nsc1Nc1cc(C(F)(F)F)ccn1 [Example 18, N-(2-Ethylphenyl)-3-methyl-5-{[4-(trifluoromethyl)pyridin-2-yl]amino}-1,2-thiazole-4-carboxamide] |
| > 20 | 7.2 | COC(=O)c1cncc(Nc2snc(C)c2C(=O)Nc2ccc(OC)nc2)n1 [Example 101, Methyl 6-({4-[(6-methoxypyridin-3-yl)carbamoyl]-3-methyl-1,2-thiazol-5-yl}amino)pyrazine-2-carboxylate] |
| > 20 | 6.7 | COc1ccc(NC(=O)c2c(C)nsc2Nc2ccc(C#N)cn2)cn1 [Example 39, 5-[(5-Cyanopyridin-2-yl)amino]-N-(6-methoxypyridin-3-yl)-3-methyl-1,2-thiazole-4-carboxamide] |
| > 20 | 4.4 | CCOC(=O)c1sc(Nc2snc(C)c2C(=O)Nc2ccccc2CC)nc1C [Example 26, Ethyl 2-({4-[(2-ethylphenyl)carbamoyl]-3-methyl-1,2-thiazol-5-yl}amino)-4-methyl-1,3-thiazole-5-carboxylate] |
| > 20 | 0.45 | Cc1nsc(Nc2cnc3ccccc3n2)c1C(=O)Nc1ccc(F)c(F)c1 [Example 50, N-(3,4-Difluorophenyl)-3-methyl-5-(quinoxalin-2-ylamino)-1,2-thiazole-4-carboxamide] |
| > 20 | 4.9 | Cc1nsc(Nc2cncc(C(=O)N3CCOCC3)n2)c1C(=O)Nc1ccc(F)c(F)c1 [Example 107, N-(3,4-Difluorophenyl)-3-methyl-5-{[6-(morpholin-4-ylcarbonyl)pyrazin-2-yl]amino}-1,2-thiazole-4-carboxamide] |
| > 20 | 1.3 | COc1ccc(NC(=O)c2c(C)nsc2Nc2cnc3cccc(C)c3n2)cn1 [Example 22, N-(6-methoxypyridin-3-yl)-3-methyl-5-[(8-methylquinoxalin-2-yl)amino]-1,2-thiazole-4-carboxamide] |
| > 20 | 3.2 | COc1ccc(Oc2ccc(NC(=O)c3c(C)nsc3Nc3cc(C#N)ccn3)cn2)cc1 [Example 117, 5-[(4-Cyanopyridin-2-yl)amino]-N-[6-(4-methoxyphenoxy)pyridin-3-yl]-3-methyl-1,2-thiazole-4-carboxamide] |
| > 20 | 7.2 | CCc1ccccc1NC(=O)c1c(C)nsc1Nc1ncnc2ccccc12 [Example 10, N-(2-Ethylphenyl)-3-methyl-5-(quinazolin-4-ylamino)-1,2-thiazole-4-carboxamide] |
| > 20 | 3.2 | COc1ccc(Oc2ccc(NC(=O)c3c(C)nsc3Nc3cnc4ccccc4n3)cn2)cc1 [Example 116, N-[6-(4-Methoxyphenoxy)pyridin-3-yl]-3-methyl-5-(quinoxaline-2-ylamino)-1,2-thiazole-4-carboxamide] |
| > 20 | 0.56 | Cc1nsc(Nc2cnc3ccccc3n2)c1C(=O)Nc1ccc(Cl)c(F)c1 [Example 40, N-(4-Chloro-3-fluorophenyl)-3-methyl-5-(quinoxalin-2-ylamino)-1,2-thiazole-4-carboxamide] |
| > 20 | 4.4 | Cc1nsc(Nc2ncc(C(=O)N(C)C)s2)c1C(=O)Nc1ccc(F)c(F)c1 [Example 49, N-(3,4-Difluorophenyl)-5-{[5-(dimethylcarbamoyl)-1,3-thiazol-2-yl]amino}-3-methyl-1,2-thiazole-4-carboxamide] |
| > 20 | 2.4 | COc1ccc(NC(=O)c2c(C)nsc2Nc2cnc3ccc(F)cc3n2)cn1 [Example 44, 5-[(7-Fluoroquinoxalin-2-yl)amino]-N-(6-methoxypyridin-3-yl)-3-methyl-1,2-thiazole-4-carboxamide] |

| SMILES | IC50 (human Bub1) [µM] | IC50 (HeLa) [µM] |
| --- | --- | --- |
| CCc1ccccc1NC(=O)c1c(C)nsc1Nc1cnc2cc(F)ccc2n1 [Example 20, N-(2-Ethylphenyl)-5-[(6-fluoroquinoxalin-2-yl)amino]-3-methyl-1,2-thiazole-4-carboxamide] | > 20 | 1.1 |
